Measurements published in patent US8337835B2, “Use of an endogenous ligand for peroxisome proliferator activated receptor alpha to treat liver disorders” (priority 2009, dated 2012).

Target: T1, ΔDBD-PPARα (Mus musculus, UniProt P23204, C119A/C122A)
T1 construct: expressed in transfected cells; host or cells: liver of chow-fed WT mice on a PPARα null background, infected with AdFLAG-ΔDBD PPARα adenovirus
T1 sequence (P23204 1-468 C119A/C122A): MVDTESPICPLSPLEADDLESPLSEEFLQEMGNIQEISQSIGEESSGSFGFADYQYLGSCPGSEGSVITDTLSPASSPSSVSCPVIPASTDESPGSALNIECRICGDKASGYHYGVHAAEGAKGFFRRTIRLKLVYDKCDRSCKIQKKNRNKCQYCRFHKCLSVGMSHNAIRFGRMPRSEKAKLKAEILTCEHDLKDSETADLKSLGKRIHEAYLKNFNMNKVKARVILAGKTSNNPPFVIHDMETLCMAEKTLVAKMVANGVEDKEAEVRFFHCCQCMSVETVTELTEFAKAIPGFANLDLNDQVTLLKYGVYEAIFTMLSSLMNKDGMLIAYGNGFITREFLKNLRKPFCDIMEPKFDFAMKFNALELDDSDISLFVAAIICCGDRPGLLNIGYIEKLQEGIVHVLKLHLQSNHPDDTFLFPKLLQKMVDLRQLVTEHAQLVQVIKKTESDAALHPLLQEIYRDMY
Experiment: In vivo competitive inhibition with PPARα having a defective DNA binding domain
Details: 50 μg/g intraperitoneal; chow fed WT mice on PPARα null background with AdFLAG-ΔDBD PPARα; 0-60 min
From the text: Adenovirus encoding both FLAG®-tagged wild type mouse PPARα and a GFP marker, and an adenovirus encoding GFP alone were gifts from T. C. Leone and D. P. Kelly. The AdPPARα virus is known to result in expression of a protein that transactivates PPARα target genes (Bernal-Mizrachi et al., 2003; Tordjman et al., 2002). The DNA binding domain (DBD) mutant of PPARα was generated by mutating the two highly conserved cysteine residues (Shi et al., 2002) to alanine (C119A, C122A) using site-directed mutagenesis (QuikChange® kit, Stratagene). The DBD mutant was subcloned into the pCMV-TAG1 vector (Stratagene) to acquire a FLAG® tag, then shuttled into pAdTrack-CMV vector encoding a GFP marker and recombined with Ad-Easy1 vector. The pAdTrack-CMV and pAdEasy-1 vectors were gifts from the laboratory of B. Vogelstein. […]
To address the concern that lipid loss could represent Wy14,643-accelerated metabolism as opposed to displacement of the ligand, 1-palmitoyl-2-oleoyl-sn-glycerol-3-phosphocholine (16:0/18:1-GPC) from its binding site on PPARα, an in vivo competitive inhibition experiment using a PPARα molecule with a defective DNA binding domain (see FIG. 5A) was employed. […] Quantification of the relative abundance of the m/z 766 ion in response to Wy14,643 administration in WT mice on a PPARα null background injected with AdFLAG-^ΔDBD PPARα adenovirus is shown in FIG. 5M. […]

With `Cc1cccc(Nc2cc(Cl)nc(SCC(=O)O)n2)c1C` [Wy14,643, 4-Chloro-6-(2,3-xylidino)-2-pyrimidinylthioacetic acid] the “displacement of m/z 766 (16:0/18:1-GPC) from ΔDBD-PPARα” value was “competed away from ΔDBD-PPARα within minutes”.
